Data as given in US8420686B2, “Linked diimidazole antivirals” (Enanta Pharmaceuticals, Inc., priority 2009, dated 2013).

The compounds below were run on HCV 1b genotype replicon (assay: HCV genotype-1b replicon assay (qRT-PCR or luciferase)). Settings: Hepatitis C virus; HCV 1b replicon cell lines (SGR 11-7 or Huh-luc/neo-ET); qRT-PCR or luciferase readout; read-out: Genotype-1b replicon EC50 Range.
Type: cell-based
Source text: HCV replicon cell lines (kindly provided by R. Bartenschlager) isolated from colonies as described by Lohman et al. (Lohman et al. (1999) Science 285: 110-113, expressly incorporated by reference in its entirety) and used for all experiments. The HCV replicon has the nucleic acid sequence set forth in EMBL Accession No.: AJ242651, the coding sequence of which is from nucleotides 1801 to 8406.
The coding sequence of the published HCV replicon was synthesized and subsequently assembled in a modified plasmid pBR322 (Promega, Madison, Wis.) using standard molecular biology techniques. One replicon cell line (“SGR 11-7”) stably expresses HCV replicon RNA which consists of (i) the HCV 5′UTR fused to the first 12 amino acids of the capsid protein, (ii) the neomycin phosphotransferase gene (neo), (iii) the IRES from encephalomyocarditis virus (EMCV), and (iv) HCV NS2 to NS5B genes and the HCV 3′UTR. […]
EC50 values of single agent compounds and combinations were determined by HCV RNA detection using quantitative RT-PCR, according to the manufacturer's instructions, with a TaqMan® One-Step RT-PCR Master Mix Reagents Kit (Cat#AB 4309169, Applied Biosystems) on an ABI Model 7500 thermocycler. The TaqMan primers used for detecting and quantifying HCV RNA were obtained from Integrated DNA Technologies. HCV RNA was normalized to GAPDH RNA levels in drug-treated cells, which is detected and quantified using the Human GAPDH Endogenous Control Mix (Applied Biosystems, AB 4310884E). […] Chemical agent cytotoxicity is evaluated using an MTS assay according to the manufacturer's directions (Promega). […]
For CN(C)[C@@H](C(=O)N1CCC[C@H]1c1ncc(-c2ccc3c(c2)Cc2cc(-c4cnc([C@@H]5CCCN5C(=O)[C@@H](c5ccccc5)N(C)C)[nH]4)ccc2-3)[nH]1)c1ccccc1 [Example 2], the EC50 was < 1 nM.
With CN(C)C(C(=O)N1CCC[C@H]1c1ncc(-c2ccc3cc4cc(-c5cnc([C@@H]6CCCN6C(=O)[C@@H](c6ccccc6)N(C)C)[nH]5)ccc4cc3c2)[nH]1)c1ccccc1 (stereo partly drawn) [Example 1-b] the EC50 was < 1 nM.
CN(C)[C@@H](C(=O)N1CCC[C@H]1c1ncc(-c2ccc(Oc3cccc(-c4cnc([C@@H]5CCCN5C(=O)[C@@H](c5ccccc5)N(C)C)[nH]4)c3)cc2)[nH]1)c1ccccc1 [Example 1-f] was tested, and the EC50 was < 1 nM.
